Earlier results, collected in patent publication US20190167649A1, “TOPICAL RAPAMYCIN THERAPY” (THE BOARD OF REGENTS OF THE UNIVERSITY OF TEXAS SYSTEM, priority 2016, published 2019).

For Rapamycin, the “solubility in organic solvents” value (benzyl alcohol, chloroform, acetone, and acetonitrile) is listed as “freely soluble” and the solubility in water (water) is listed as 2.6 µg/mL.
